Like-named read-outs stand apart in the source and are kept apart here.
Target: T1, Human Cav3.1 calcium channel (Homo sapiens, UniProt O43497)
T1 construct: expressed in transfected cells; host or cells: HEK-293 natClytin/TASK1+Cav3.1 cell line
Assay: Human Cav3.1 calcium channel patch clamp assay (SyncroPatch 384PE; single point and IC50, voltage dependent block)
Assay type: cell-based
Details: for % Inhibition (Single Point Data): patch clamp
Procedure, shortened: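 Automated whole-cell patch clamp at room temperature, cells held at −120 mV; 100 ms step to −20 mV (resting block), then 1600 ms at −65 mV and a second −20 mV step (voltage-dependent block), every 15 s. Peak currents averaged over last 3 sweeps; % inhibition relative to nickel-sensitive current.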

[1] = Testing Conc 1.25, HEK-293 natClytin/TASK1+Cav3.1 cell line
[2] = voltage dependent block (VDB), HEK-293 natClytin/TASK1+Cav3.1 cell line, read-out: Cav3.1 IC50
[3] = Testing Conc 1, HEK-293 natClytin/TASK1+Cav3.1 cell line

T1 sequence (O43497 whole entry): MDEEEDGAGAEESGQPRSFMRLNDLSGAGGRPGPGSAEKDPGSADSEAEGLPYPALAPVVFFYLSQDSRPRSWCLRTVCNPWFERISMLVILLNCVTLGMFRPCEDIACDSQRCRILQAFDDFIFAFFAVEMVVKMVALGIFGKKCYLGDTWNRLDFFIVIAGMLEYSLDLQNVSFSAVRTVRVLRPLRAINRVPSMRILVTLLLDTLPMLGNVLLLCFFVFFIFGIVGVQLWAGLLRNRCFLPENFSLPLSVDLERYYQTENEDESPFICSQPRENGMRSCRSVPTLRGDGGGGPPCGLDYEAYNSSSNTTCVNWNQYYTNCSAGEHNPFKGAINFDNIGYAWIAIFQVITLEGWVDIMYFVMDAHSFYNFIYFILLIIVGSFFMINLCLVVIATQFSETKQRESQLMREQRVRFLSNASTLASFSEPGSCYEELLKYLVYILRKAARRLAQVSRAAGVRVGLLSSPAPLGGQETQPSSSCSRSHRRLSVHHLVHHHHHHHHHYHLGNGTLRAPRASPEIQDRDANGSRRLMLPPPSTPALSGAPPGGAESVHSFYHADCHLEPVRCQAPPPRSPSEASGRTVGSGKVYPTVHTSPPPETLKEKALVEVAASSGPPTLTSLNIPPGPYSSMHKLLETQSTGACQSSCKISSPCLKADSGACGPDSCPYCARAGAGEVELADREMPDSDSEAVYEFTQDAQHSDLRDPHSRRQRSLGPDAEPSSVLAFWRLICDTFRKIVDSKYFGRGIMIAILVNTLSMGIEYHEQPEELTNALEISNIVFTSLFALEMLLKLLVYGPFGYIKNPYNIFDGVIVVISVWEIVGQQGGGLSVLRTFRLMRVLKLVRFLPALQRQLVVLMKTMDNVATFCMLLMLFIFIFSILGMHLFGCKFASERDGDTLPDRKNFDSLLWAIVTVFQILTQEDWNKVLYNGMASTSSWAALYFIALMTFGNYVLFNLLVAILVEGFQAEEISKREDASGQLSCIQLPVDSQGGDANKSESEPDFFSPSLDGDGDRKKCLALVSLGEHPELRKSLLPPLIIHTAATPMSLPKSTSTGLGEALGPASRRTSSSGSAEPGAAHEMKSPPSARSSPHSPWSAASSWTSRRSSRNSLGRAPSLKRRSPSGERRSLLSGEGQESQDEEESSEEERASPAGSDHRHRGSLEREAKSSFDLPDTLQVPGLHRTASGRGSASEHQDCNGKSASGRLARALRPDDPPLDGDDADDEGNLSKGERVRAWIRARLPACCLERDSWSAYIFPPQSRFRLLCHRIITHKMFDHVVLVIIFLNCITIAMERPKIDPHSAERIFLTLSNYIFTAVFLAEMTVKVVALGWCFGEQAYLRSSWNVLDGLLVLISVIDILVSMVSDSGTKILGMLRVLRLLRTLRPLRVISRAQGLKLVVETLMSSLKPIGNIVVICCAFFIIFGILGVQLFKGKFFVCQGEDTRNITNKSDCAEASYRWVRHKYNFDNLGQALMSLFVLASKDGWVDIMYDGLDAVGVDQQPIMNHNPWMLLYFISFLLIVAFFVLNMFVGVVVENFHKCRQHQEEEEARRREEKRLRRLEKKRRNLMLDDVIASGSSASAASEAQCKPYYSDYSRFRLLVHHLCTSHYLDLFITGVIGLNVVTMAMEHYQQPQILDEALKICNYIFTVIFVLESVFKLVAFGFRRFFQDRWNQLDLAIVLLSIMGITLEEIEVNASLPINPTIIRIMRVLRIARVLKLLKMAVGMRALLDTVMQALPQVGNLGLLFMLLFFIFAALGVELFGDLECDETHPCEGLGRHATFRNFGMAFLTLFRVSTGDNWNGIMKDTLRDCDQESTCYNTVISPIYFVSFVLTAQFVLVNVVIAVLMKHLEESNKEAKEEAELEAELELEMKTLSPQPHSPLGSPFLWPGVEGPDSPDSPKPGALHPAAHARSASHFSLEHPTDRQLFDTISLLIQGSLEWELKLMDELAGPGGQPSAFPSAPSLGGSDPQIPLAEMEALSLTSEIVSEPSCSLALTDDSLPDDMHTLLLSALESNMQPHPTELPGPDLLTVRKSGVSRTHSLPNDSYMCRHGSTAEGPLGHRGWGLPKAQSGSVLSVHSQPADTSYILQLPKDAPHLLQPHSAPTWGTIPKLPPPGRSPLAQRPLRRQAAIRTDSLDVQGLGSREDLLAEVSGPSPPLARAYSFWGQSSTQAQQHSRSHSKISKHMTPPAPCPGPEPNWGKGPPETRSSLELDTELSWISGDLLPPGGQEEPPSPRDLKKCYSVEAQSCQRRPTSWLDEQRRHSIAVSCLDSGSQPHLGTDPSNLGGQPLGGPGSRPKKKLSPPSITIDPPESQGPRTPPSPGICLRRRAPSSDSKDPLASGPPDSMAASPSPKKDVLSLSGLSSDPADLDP

Row | IC50 [2] [µM] | % Inhibition (Single Point Data) [3] [%] | Compound | % Inhibition (Single Point Data) [1] [%] | IC50 [µM]
1 | 0.455 |  | CC(C)(C)NC(=O)CN1C[C@@H]2CC[C@H]1CN2CC(=O)Nc1ccc(F)c(OC(F)F)c1 [Compound 267] | 73.222 | 
2 | 1.31 |  | CC(C)(C)NC(=O)CN1C[C@@H]2C[C@H]1CN2CC(=O)Nc1cccc(OC(F)F)c1 [Compound 253] | 38.026 | 
3 | 1.56 |  | O=C(CN1CCN(CC(=O)NC2(C(F)(F)F)CC2)CC1)Nc1cc(F)cc(OC(F)F)c1 [Compound 54] | 39.211 | 
4 |  |  | CC(C)(C(=O)NCCN1C2CC1CN(CC(=O)Nc1cc(F)cc(Cl)c1)C2)C(F)(F)F [Compound 230] | 96.987 | 
5 | 1.35 |  | COC12CC3CC(CC(NC(=O)CN4C[C@@H]5C[C@H]4CN5CC(=O)NC(C)(C)C)(C3)C1)C2 [Compound 342] | 25.743 | 
6 | 5.72 |  | CC(C)(C)NC(=O)CN1CCO[C@H](CNC(=O)c2ccc(F)c(OC(F)F)c2)C1 [Compound 367] |  | 
7 | 0.234 |  | CC(C(=O)Nc1ccc(F)c(OC(F)F)c1)N1C[C@@H]2C[C@H]1CN2CC(=O)NC(C)(C)C (stereo partly shown) [Compound 263] | 90.098 | 
8 |  |  | CC(C)(C)NC(=O)CN1C2CC1CN(CC(=O)Nc1cc(F)ccc1C#N)C2 [Compound 219] | 35.823 | 
9 | 0.131 |  | COc1cc(NC(=O)CN2C[C@@H]3C[C@H]2CN3CC(=O)NC2(C(F)(F)F)CC2)cc(F)c1F [Compound 351] |  | 
10 |  |  | CC(C(=O)Nc1ccc(F)c(OC(F)F)c1)N1CC2CC(C1)N2CC(=O)NC(C)(C)C (stereo not shown) [Compound 256] | 100.73 | 
11 |  |  | CC(C)(C)NC(=O)CN1C[C@@H]2C[C@H]1CN2C(=O)NCC12CC3CC(CC(C3)C1)C2 [Compound 290] | 8.7515 | 
12 | 0.126 |  | CC(C)(C)NC(=O)CN1CC2COCC(C1)C2CC(=O)Nc1cc(F)cc(Cl)c1 (stereo not shown) [Compound 368] |  | 
13 |  |  | CC(C)(C)NC(=O)CN1C2CC1CN(Cc1nc3c(C#N)cc(F)cc3[nH]1)C2 [Compound 114] | 95.181 | < 0.0782
14 | 0.316 | 38.937 | CC(C)(C)NC(=O)CN1CCN(CC(=O)Nc2noc3ccccc23)CC1 [Compound 41] |  | 
15 |  |  | CC(C)(C)NC(=O)CN1C2CC1CN(Cc1nc3c(OC(F)F)ccc(F)c3[nH]1)C2 [Compound 173] | 94.854 | < 0.0782
16 |  | 40.057 | Cc1cc(CNC(=O)CN2CCN(CC(=O)NC(C)(C)C)CC2)nn1-c1ccccc1 [Compound 2] |  | 

Row | IC50 [2] [µM] | % Inhibition (Single Point Data) [3] [%] | Compound | % Inhibition (Single Point Data) [1] [%] | IC50 [µM]
17 | 0.645 |  | CC(C)(C)NC(=O)CN1CCC(CNc2nccc3c(Cl)cc(F)cc23)CC1 [Compound 124] | 67.808 | 
18 |  | 56.921 | CC(C)(C)NC(=O)CN1CCCN(CC(=O)NC23CC4CC(CC(C4)C2)C3)CC1 [Compound 32] |  | 
19 | 0.241 |  | COc1cc(NC(=O)CN2C[C@@H]3C[C@H]2CN3CC(=O)NC(C)(C)C)ccc1F [Compound 310] | 84.193 | 
20 | 0.0587 |  | CC(C)(C)NC(=O)CN1C[C@@H]2C[C@H]1CN2CC(=O)Nc1cc(Cl)cc(OC(F)F)c1 [Compound 294] | 101.56 | 
21 |  |  | CCC(C)(C)NC(=O)CN1C2CCC1CN(Cc1nc3c(Cl)cc(F)cc3[nH]1)C2 [Compound 75] | 99.169 | 
22 | 0.886 |  | O=C(CN1C[C@@H]2C[C@H]1CN2CC1(O)CCC(F)(F)CC1)NC12CC3CC(CC(C3)C1)C2 [Compound 277] | 56.486 | 
23 |  |  | CC(C)(C)C(=O)NCCN1C2CC1CN(Cc1nc3c(Cl)cc(F)cc3[nH]1)C2 [Compound 134] | 94.728 | 
24 |  |  | CC(C)(C)NC(=O)CN1C2CC1CN(CC(=O)NC1CCCCC1)C2 [Compound 309] | 22.713 | 
25 | 0.49 |  | Fc1cc(Cl)c2nc(CN3CCN(Cc4cccc(Cl)c4)CC3)[nH]c2c1 [Compound 67] | 83.039 | 
26 | 0.627 | 62.5 | COCC1CN(CC(=O)NC(C)(C)C)CCN1CC(=O)Nc1cc(F)cc(Cl)c1 (stereo not shown) [Compound 42] |  | 
27 | 3.32 |  | CC(C)Cc1cc(CNC(=O)CN2C[C@@H]3C[C@H]2CN3CC(=O)NC(C)(C)C)nn1-c1ccccc1 [Compound 302] | 21.003 | 
28 |  |  | COc1cc(F)cc(NC(=O)CN2C[C@@H]3C[C@H]2CN3CC(=O)NC(C)(C)C)c1 [Compound 275] | 93.716 | 
29 |  |  | CC(C)(NC(=O)CN1C2CC1CN(CC(=O)Nc1ccc(F)c(Cl)c1)C2)C(F)(F)F [Compound 241] | 101.68 | 
30 | 1.21 |  | CC(C)(C)NC(=O)CN1CCN(CC(=O)Nc2cc(F)cc(Cl)c2)C2(COC2)C1 [Compound 44] | 50 | 
31 | 0.243 |  | CC(C)(C)NC(=O)CN1CCC(CNc2nccc3c(F)cc(Cl)cc23)CC1 [Compound 123] | 96.398 | 
32 |  |  | CC1(CCN2C3CC2CN(Cc2nc4c(Cl)cc(F)cc4[nH]2)C3)CCOCC1 [Compound 105] | 73.309 | 

Row | Compound | IC50 [2] [µM] | % Inhibition (Single Point Data) [3] [%] | % Inhibition (Single Point Data) [1] [%] | IC50 [µM]
33 | CC(C)(C)C(O)CN1C2CC1CN(CC(=O)NC13CC4CC(CC(C4)C1)C3)C2 (stereo not shown) [Compound 293] | 1.68 |  | 38.151 | 
34 | CC1(C)CCCC(=O)N1CCN1C2CC1CN(Cc1nc3c(Cl)cc(F)cc3[nH]1)C2 [Compound 103] | 0.109 |  | 96.655 | 
35 | Cc1cccc2[nH]c(CN3CC4CC(C3)N4CCC3CCC(F)(F)CC3)nc12 [Compound 157] | 0.297 |  | 79.835 | 
36 | Fc1cc(Cl)c2nc(CN3CC4CC(C3)N4CC(F)(F)C3CCCCC3)[nH]c2c1 [Compound 167] | 0.381 |  | 79.996 | 
37 | CC(C)(C)NC(=O)CN1C2CC1CN(CC(=O)Nc1ccc(F)c(C(F)F)c1)C2 [Compound 250] | 0.377 |  | 86.981 | 
38 | Cc1ccnc2[nH]c(CN3CC4CCC(C3)N4CC(=O)NC(C)(C)C)nc12 [Compound 187] | 1 |  | 46.159 | 
39 | COc1cc(NC(=O)CN2CC3CC(C2)N3CC(=O)NC2(C(F)(F)F)CC2)cc(F)c1F [Compound 352] | 0.133 |  |  | 
40 | CC1(C)CCN1C(=O)CN1C2CCC1CN(Cc1nc3c(Cl)cc(F)cc3[nH]1)C2 [Compound 86] | 0.15 |  | 103.03 | 
41 | COc1cc(F)cc2[nH]c(CN3CC4CC(C3)N4CCC3CCC(F)(F)CC3)nc12 [Compound 158] | 0.148 |  | 92.557 | 
42 | CC1(C)CCN1C(=O)CN1C2CC1CN(Cc1nc3c(Cl)cc(F)cc3[nH]1)C2 [Compound 94] | 0.249 |  | 89.896 | 
43 | CC(C)(C)NC(=O)CN1C2CC1CN(CC(=O)Nc1cccc(C(F)F)c1)C2 [Compound 15] | 0.308 |  | 73.866 | 
44 | O=C(NCCN1C2CC1CN(Cc1nc3c(Cl)cc(F)cc3[nH]1)C2)C1(C(F)(F)F)CC1 [Compound 135] | 0.156 |  | 101.33 | 
45 | CC(C)(NC(=O)CN1CC2CC(C1)N2Cc1nc2c(Cl)ccc(F)c2[nH]1)C(F)(F)F [Compound 127] | 0.992 |  | 52.415 | 
46 | CC(C)(C)NC(=O)CN1C2CC1CN(CC(=O)Nc1ccc(F)c(OC(F)F)c1)C2 [Compound 244] | 0.179 |  | 90.346 | 
